Results as given in US11999727B2 (Tango Therapeutics, Inc., priority 2020, dated 2024).

What was measured:
[1] = test system: HAP1 MTAP-intact cell line; test: SDMA in-cell western assay, HAP1 MTAP-intact; format: cell-based; conditions: Homo sapiens, HAP1, SDMA in-cell western, HAP1 MTAP-intact; read-out: MTAP HAP1 intact IC50
Method in brief: (§1)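 Readout: in-cell western detection of SDMA. Cells: HAP1 expressing endogenous MTAP and an MTAP-null HAP1 counterpart. Output: IC50.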

PRMT5 [2] = target: T1, PRMT5 (Homo sapiens, UniProt O14744); test: PRMT5 biochemical IC50 assay with MTA as cofactor; conditions: PRMT5, MTA as cofactor; read-out: MTA IC50
T1 construct: purchased Viva (custom protein)

PRMT5 [3] = target: T1, PRMT5; test: PRMT5 biochemical IC50 assay with no cofactor; conditions: PRMT5, no cofactor; read-out: No Cofactor/rel IC50
Description: Table 1 indicates IC50 values (μM) against PRMT5 for exemplary compounds in the presence of SAM as cofactor, with no cofactor, and with MTA as cofactor, respectively (columns 4-6). […] Ki values can be calculated from the IC50 values as described in the Examples section. As detailed in the Examples section, for the assay performed in the presence of SAM, IC50=Ki×1.5 (Ki=IC50/1.5).

[4] = test system: HAP1 MTAP-deleted cell line; test: SDMA in-cell western assay, HAP1 MTAP-deleted; format: cell-based; conditions: for IC50: Homo sapiens, HAP1, SDMA in-cell western, HAP1 MTAP-deleted, read-out: HAP1 MTAP deleted IC50; for MTAP intact/deleted ratio: IC50 ratio HAP1 MTAP-intact / HAP1 MTAP-deleted, SDMA in-cell western
Method in brief: as §1

PRMT5 [5] = target: T1, PRMT5; test: PRMT5 biochemical IC50 assay with SAM as cofactor; conditions: PRMT5, SAM as cofactor; read-out: SAM IC50
[6] = test system: HAP1 MTAP-deleted cell line; test: Viability assay, MTAP-deleted cell line; format: cell-based; conditions: Homo sapiens, HAP1, viability assay, MTAP-deleted cell line; read-out: HAP1 MTAP deleted viability
Description: Table 1 additionally indicates IC50 values in a viability assay for the MTAP-deleted cell line (column 10), indicating the effect of treatment with compound on cell survival.

T1 sequence (O14744 whole entry): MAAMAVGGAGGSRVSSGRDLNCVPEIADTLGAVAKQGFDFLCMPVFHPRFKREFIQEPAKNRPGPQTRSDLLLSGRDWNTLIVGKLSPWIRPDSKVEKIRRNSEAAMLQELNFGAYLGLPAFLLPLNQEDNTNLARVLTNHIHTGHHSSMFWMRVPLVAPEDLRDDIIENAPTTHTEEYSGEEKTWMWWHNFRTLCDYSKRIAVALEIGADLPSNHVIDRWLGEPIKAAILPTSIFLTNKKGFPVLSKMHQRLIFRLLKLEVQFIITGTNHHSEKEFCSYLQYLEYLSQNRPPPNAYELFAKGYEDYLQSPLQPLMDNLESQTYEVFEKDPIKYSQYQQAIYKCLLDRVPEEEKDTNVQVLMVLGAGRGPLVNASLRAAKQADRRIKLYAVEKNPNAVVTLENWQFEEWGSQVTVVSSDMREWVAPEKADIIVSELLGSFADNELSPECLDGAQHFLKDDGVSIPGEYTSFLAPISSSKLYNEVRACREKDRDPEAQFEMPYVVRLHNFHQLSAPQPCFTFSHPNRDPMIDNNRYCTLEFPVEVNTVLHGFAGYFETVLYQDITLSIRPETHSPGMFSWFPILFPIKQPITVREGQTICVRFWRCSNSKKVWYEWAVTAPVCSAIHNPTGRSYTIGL
T1 sequence (Q9BQA1 whole entry partner): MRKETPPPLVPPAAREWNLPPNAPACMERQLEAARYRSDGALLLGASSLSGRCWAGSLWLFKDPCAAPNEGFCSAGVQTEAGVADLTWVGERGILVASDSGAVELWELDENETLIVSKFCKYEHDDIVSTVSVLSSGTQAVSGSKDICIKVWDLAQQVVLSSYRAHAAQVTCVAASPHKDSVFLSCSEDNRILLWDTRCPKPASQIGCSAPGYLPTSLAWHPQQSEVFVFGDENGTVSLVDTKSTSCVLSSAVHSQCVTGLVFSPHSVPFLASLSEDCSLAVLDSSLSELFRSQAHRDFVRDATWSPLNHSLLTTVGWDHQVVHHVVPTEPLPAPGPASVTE

SMILES | IC50 [1] [nM] | IC50 (PRMT5 [2]) [nM] | IC50 (PRMT5 [3]) [nM] | IC50 [4] [nM] | MTAP intact/deleted ratio [4] | IC50 (PRMT5 [5]) [nM] | IC50 [6] [nM]
C[C@H]1CC[C@H]([C@H]2CC[C@H](O)CC2)N(C(=O)C(=O)Nc2cncc(C(N)=O)c2)C1 (single isomer, unassigned) [Compound 394] | > 1000 | < 50 | 50 to 500 | 100 to 1000 | A (an IC50 ratio greater than or equal to 10 fold) | 50 to 500 | 1000 to 10000
C[C@@H]1CC[C@@H]([C@H]2CC[C@H](O)CC2)N(C(=O)C(=O)Nc2cncc(C(N)=O)c2)C1 (single isomer, unassigned) [Compound 395] | > 1000 | > 500 | > 500 | > 1000 | C (an IC50 ratio of less than 3 fold) | > 500 | > 10000
C[C@H]1CC[C@H](c2ccc(N)cc2)N(C(=O)C(=O)Nc2cncc(C(N)=O)c2)C1 (single isomer, unassigned) [Compound 398] | > 1000 | > 500 | > 500 | > 1000 | B (an IC50 ratio greater than or equal to 3 fold but lower than 10 fold) | > 500 | > 10000
Cc1cc(NC(=O)C(=O)N2CC[C@@H](C#N)C[C@H]2c2ccccc2)cnc1N (single isomer, unassigned) [Compound 399] | > 1000 | < 50 | 50 to 500 | < 100 | A (an IC50 ratio greater than or equal to 10 fold) | 50 to 500 | 1000 to 10000
Cc1cc(NC(=O)C(=O)N2[C@H](C)CCC[C@@H]2c2ccccc2)cnc1N (single isomer, unassigned) [Compound 415] | 100 to 1000 | < 50 | 50 to 500 | < 100 | A (an IC50 ratio greater than or equal to 10 fold) | 50 to 500 | 1000 to 10000
Cc1cc(NC(=O)C(=O)N2[C@@H](C)CCC[C@H]2c2ccccc2)cnc1N (single isomer, unassigned) [Compound 417] | > 1000 | 50 to 500 | > 500 | 100 to 1000 | B (an IC50 ratio greater than or equal to 3 fold but lower than 10 fold) | 50 to 500 | > 10000
Cc1c(NC(=O)C(=O)N2[C@@H](C)CCC[C@H]2c2ccccc2)cnc(N)c1C (single isomer, unassigned) [Compound 425] | > 1000 | < 50 | 50 to 500 | 100 to 1000 | A (an IC50 ratio greater than or equal to 10 fold) | 50 to 500 | 1000 to 10000
Cc1cc(NC(=O)C(=O)N2C[C@H](C)CC[C@H]2[C@H]2CC[C@H](O)CC2)cnc1N (single isomer, unassigned) [Compound 431] | > 1000 | < 50 | 50 to 500 | < 100 | A (an IC50 ratio greater than or equal to 10 fold) | 50 to 500 | 1000 to 10000
C[C@@H]1CC[C@@H](c2ccc3c(c2)CCCN3)N(C(=O)C(=O)Nc2cncc(C(N)=O)c2)C1 (single isomer, unassigned) [Compound 432] | > 1000 | < 50 | 50 to 500 | < 100 | A (an IC50 ratio greater than or equal to 10 fold) | 50 to 500 | 1000 to 10000
C[C@H]1CC[C@H](c2ccccc2)N(C(=O)C(=O)Nc2cncc(C(N)=O)c2)[C@H]1C (single isomer, unassigned) [Compound 433] | > 1000 | < 50 | > 500 | < 100 | A (an IC50 ratio greater than or equal to 10 fold) | 50 to 500 | > 10000
Cc1cc(NC(=O)C(=O)N2C[C@H](C)CC[C@H]2[C@H]2CC[C@@H](O)CC2)cnc1N (single isomer, unassigned) [Compound 436] | > 1000 | 50 to 500 | 50 to 500 | 100 to 1000 | A (an IC50 ratio greater than or equal to 10 fold) | 50 to 500 | > 10000
C[C@@H]1CC[C@@H](c2ccc(NCC(=O)N(C)C)cc2)N(C(=O)C(=O)Nc2cncc(C(N)=O)c2)C1 (single isomer, unassigned) [Compound 437] | > 1000 | < 50 | 50 to 500 | < 100 | A (an IC50 ratio greater than or equal to 10 fold) | 50 to 500 | 1000 to 10000
Cc1c(NC(=O)C(=O)N2[C@H](C)CCC[C@@H]2c2ccccc2)cnc(N)c1C (single isomer, unassigned) [Compound 439] | > 1000 | < 50 | 50 to 500 | < 100 | A (an IC50 ratio greater than or equal to 10 fold) | 50 to 500 | 1000 to 10000
C[C@H]1CC[C@H](c2cccc(Cl)c2)N(C(=O)C(=O)Nc2cncc(C(N)=O)c2)C1 (single isomer, unassigned) [Compound 440] | > 1000 | < 50 | 50 to 500 | < 100 | A (an IC50 ratio greater than or equal to 10 fold) | 50 to 500 | 1000 to 10000
CNc1ccc([C@@H]2CC[C@@H](C)CN2C(=O)C(=O)Nc2cncc(C(N)=O)c2)cn1 (single isomer, unassigned) [Compound 443] | > 1000 | < 50 | < 50 | < 100 | A (an IC50 ratio greater than or equal to 10 fold) | 50 to 500 | < 1000
COc1ncc(NC(=O)C(=O)N2C[C@H](C)CC[C@H]2c2ccc(F)cc2)cc1C(N)=O (single isomer, unassigned) [Compound 446] | > 1000 | < 50 | 50 to 500 | < 100 | A (an IC50 ratio greater than or equal to 10 fold) | 50 to 500 | 1000 to 10000
CNc1ccc([C@H]2CC[C@H](C)CN2C(=O)C(=O)Nc2cnc(OC)c(C(N)=O)c2)cn1 (single isomer, unassigned) [Compound 447] | > 1000 | < 50 | < 50 | < 100 | A (an IC50 ratio greater than or equal to 10 fold) | 50 to 500 | < 1000
CNc1ccc([C@@H]2CC[C@@H](C)CN2C(=O)C(=O)Nc2cnc(OC)c(C(N)=O)c2)cn1 (single isomer, unassigned) [Compound 448] | > 1000 | > 500 | > 500 | > 1000 | C (an IC50 ratio of less than 3 fold) | > 500 | > 10000
CNc1cccc([C@@H]2CC[C@@H](C)CN2C(=O)C(=O)Nc2cnc(N)c(C)c2)c1 (single isomer, unassigned) [Compound 449] | 100 to 1000 | < 50 | 50 to 500 | < 100 | A (an IC50 ratio greater than or equal to 10 fold) | 50 to 500 | < 1000
CC(=O)Nc1ccc([C@@H]2CC[C@@H](C)CN2C(=O)C(=O)Nc2cncc(C(N)=O)c2)cc1 (single isomer, unassigned) [Compound 451] | > 1000 | < 50 | 50 to 500 | < 100 | A (an IC50 ratio greater than or equal to 10 fold) | 50 to 500 | 1000 to 10000
COc1ncc(NC(=O)C(=O)N2C[C@H](C)CC[C@H]2c2ccc3c(c2)CC(=O)N3)cc1C(N)=O (single isomer, unassigned) [Compound 453] | > 1000 | > 500 | > 500 | > 1000 | C (an IC50 ratio of less than 3 fold) | > 500 | > 10000
COc1ncc(NC(=O)C(=O)N2C[C@@H](C)CC[C@@H]2c2ccc3c(c2)CC(=O)N3)cc1C(N)=O (single isomer, unassigned) [Compound 454] | 100 to 1000 | < 50 | < 50 | < 100 | A (an IC50 ratio greater than or equal to 10 fold) | 50 to 500 | < 1000
C[C@@H]1CC[C@@H](c2ccc(NCC(F)(F)F)cc2)N(C(=O)C(=O)Nc2cncc(C(N)=O)c2)C1 (single isomer, unassigned) [Compound 455] | > 1000 | < 50 | 50 to 500 | 100 to 1000 | A (an IC50 ratio greater than or equal to 10 fold) | 50 to 500 | 1000 to 10000
